The results in this text go back to publication PMC8307938, “The Lysozyme Inhibitor Thionine Acetate Is Also an Inhibitor of the Soluble Lytic Transglycosylase Slt35 from Escherichia coli” (Molecules, 2021).

This test deals with T1, Slt35 (Escherichia coli, UniProt P41052).
T1 construct: gene mltB; N-terminal His-tag
T1 sequence (P41052 19-361): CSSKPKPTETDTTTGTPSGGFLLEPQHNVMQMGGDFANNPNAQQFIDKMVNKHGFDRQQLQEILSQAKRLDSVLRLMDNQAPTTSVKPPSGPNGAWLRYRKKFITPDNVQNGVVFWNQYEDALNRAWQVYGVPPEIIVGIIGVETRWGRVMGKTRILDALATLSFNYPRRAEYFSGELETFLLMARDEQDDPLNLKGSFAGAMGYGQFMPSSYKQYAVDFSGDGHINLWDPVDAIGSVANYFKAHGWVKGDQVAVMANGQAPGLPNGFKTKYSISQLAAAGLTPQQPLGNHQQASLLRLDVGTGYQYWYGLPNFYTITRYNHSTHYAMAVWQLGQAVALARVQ
Nature of the test: saturation transfer difference NMR ([…] compound, […] Slt35; weak; no inhibition up to […]). Type of test: binding.

`OC[C@H]1NC[C@H](O)[C@@H](O)[C@@H]1O` [1-deoxynojirimycin]: the “saturation transfer difference NMR (5 mM compound, 20 μM Slt35); weak; no inhibit” value is “weak enhancement of signals from 1-deoxynojirimycin on selective excitation of Slt35 (Figure S1), suggesting that this compound is capable of binding”.
